Where a SMILES comes first, the peptide text is derived from it. [ ]: non-standard residue; d: D form.
Assays:
PKG II = test: inhibition of PKG II; type: biochemical; details: up to 1 µM (D)-DT2
Procedure: (§1) We tested the inhibitory effects of (D)-DT2 and DT3 on PKG and its effects on intact cells. […] It should be noted that the measured PKG concentration is about 7 µM in platelets and 0.1 – 0.5 µM in all other tested cells.

PKA [1] = test: inhibition of PKA; type: biochemical; details: up to 1 µM (D)-DT2
PKG = PKG activity in broken platelet cell experiments; type: biochemical; details: broken platelet cells, measured PKG concentration about 7 µM in platelets
Procedure: as §1

PKA [2] = test: PKA activity in broken platelet cell experiments; type: biochemical; details: broken platelet cells; at these concentrations (starting at 5 µM, complete PKG inhibition at 20 µM)
Procedure: as §1

platelets [3] = test: thrombin-induced platelet aggregation; type: cell-based; details: preincubation of platelets with 10 nM (D)-DT2
Procedure: as §1

platelets [4] = test: thrombin-induced calcium mobilization in platelets; type: cell-based; details: preincubation of platelets with 10 nM (D)-DT2
Procedure: as §1

platelets [5] = test: aggregation of collagen-stimulated platelets; type: cell-based; details: preincubation of platelets with 10 nM (D)-DT2
Procedure: as §1

platelets [6] = test: calcium mobilization in collagen-stimulated platelets; type: cell-based; details: preincubation of platelets with 10 nM (D)-DT2
Procedure: as §1

platelets [7] = test: platelet function versus PKG activity; type: cell-based
Procedure: as §1

PKG in intact cells = details: ref [1]; cited from earlier work
Text: Cellular cGMP effects can be mediated by a number of effectors including cGMP-dependent protein kinases (PKGs), cGMP-stimulated phosphodiesterase (PDE2), cGMP-inhibited phosphodiesterase (PDE3), and cGMP-gated channels. Pharmacological inhibitors of PKG are often used to discriminate between these diverse cGMP effects. Currently used PKG inhibitors can be divided into three classes: cyclic nucleotide binding site inhibitors like Rp-phosphorothioate analogs, ATP binding site inhibitors like KT5823, and substrate binding site inhibitors like the recently described DT-oligopeptides. However, seve ...

SMILES	inhibition of PKG II (PKG II)	inhibition of PKA (PKA [1])	concentration giving complete inhibition of PKG activity (PKG; complete inhibition)	concentration at which PKG inhibition starts (PKG)	inhibition of PKA activity (PKA [2])	effect on thrombin-induced platelet aggregation (platelets [3])	effect on thrombin-induced calcium mobilization (platelets [4])	effect on aggregation in collagen-stimulated platelets (platelets [5])	effect on calcium mobilization in collagen-stimulated platelets (platelets [6])	correlation of effects on platelet function with PKG activity (platelets [7])	PKG inhibition in intact cells (PKG in intact cells)
CC(C)C[C@@H](NC(=O)[C@H]1CCCN1C(=O)[C@H]1CCCN1C(=O)[C@@H](CCCNC(=N)N)NC(=O)[C@@H](CCCNC(=N)N)NC(=O)[C@@H](CCCNC(=N)N)NC(=O)[C@@H](CCC(N)=O)NC(=O)[C@@H](CCCNC(=N)N)NC(=O)[C@@H](CCCNC(=N)N)NC(=O)[C@@H](CCCCN)NC(=O)[C@@H](CCCCN)NC(=O)[C@@H](CCCNC(=N)N)NC(=O)CNC(=O)[C@H](N)Cc1ccc(O)cc1)C(=O)N[C@H](CCCNC(=N)N)C(=O)N[C@H](CCCCN)C(=O)N[C@H](CCCCN)C(=O)N[C@H](CCCCN)C(=O)N[C@H](CCCCN)C(=O)N[C@H](CCCCN)C(=O)N[C@H](Cc1c[nH]cn1)C(N)=O [(D)-DT2] (H-[dY]G[dR][dK][dK][dR][dR][dQ][dR][dR][dR][dP][dP][dL][dR][dK][dK][dK][dK][dK][dH]-NH2; N-terminus and C-terminus assumed)	did not inhibit	did not inhibit	20 µM	5 µM	observed inhibition of PKA activity	strongly inhibited	strongly inhibited	potentiated	potentiated	did not correlate with PKG activity	–
COC(=O)[C@@]1(OC)C[C@H]2O[C@]1(C)n1c3ccccc3c3c4c(c5c6ccccc6n2c5c31)C(=O)N(C)C4 [KT5823]	–	–	–	–	–	–	–	–	–	–	no PKG inhibition

Reference: paper PMC3363220, “Specific PKG inhibitors: do they really exist?” (BMC Pharmacology, 2011)
